From US20220265759A1, “COMPOSITION AND METHOD FOR PROMOTING WOUND HEALING” (THE BOARD OF TRUSTEES OF THE UNIVERSITY OF ILLIOIS, priority 2019, published 2022)
Square brackets hold non-standard residues; d marks the D form. Ends that are not written are not given here. Peptide text beside a SMILES is read from it. * marks the point of attachment. d2Nal = N[C@H](Cc1ccc2ccccc2c1)C(=O)O; Myristoyl = CCCCCCCCCCCCCC(=O)*; Aib = CC(C)(N)C(=O)O

Experiments:
[1] = test system: HUVECs; assay: Endothelial cell tube formation induced by CCL28; assay type: cell-based, human; conditions: induced by 500 ng/ml CCL28
Protocol: Endothelial Cell Tube Formation. HUVECs were transfected with eNOS (50 nM), CCR10 (100 nM), or scrambled control (100 nM) siRNA and, after 48 hours, the cells were transferred to 96-well plates preloaded with extracellular matrix sold under the tradename […]®. To examine the CCL28 signaling pathways, HUVECs were pre-incubated with vehicle or specific inhibitors and then stimulated with or without CCL28 as described previously (Chen, et al. (2015) Ann. Rheum. Dis. 74:1898-1906).
The role of CCL28/CCR10 signaling pathways was further investigated in angiogenesis. Pretreatment of cells with 10 μM wortmannin (PI3K inhibitor), 5 μM U0126 (MAPK/ERK inhibitor), 1 mM L-NAME (eNOS inhibitor), 10 μM PP2 (Src kinase inhibitor), and 10 μM STO-609 ([…]) reduced endothelial cell tube formation induced by 500 ng/ml CCL28. […] In addition, CCL28 stimulation of endothelial cells for 24 hours enhanced expression levels of cell adhesion protein […] and anti-apoptotic protein B-cell leukemia/lymphoma-2 (Bcl-2), supporting the proliferation potential of endothelial cells in response to stimulation with CCL28.

[2] = target: T1, CCR10-eNOS interaction (Homo sapiens, UniProt P46092); assay: Co-IP of CCR10-eNOS interaction in HUVECs stimulated with A23187; assay type: cell-based; conditions: endothelial cells (HUVECs), pretreatment 50 μM, 5 μM A23187 for 5 minutes, vs control peptide
T1 construct: host or cells: HUVEC (primary human umbilical vein endothelial cells)
T1 sequence (P46092 1-362): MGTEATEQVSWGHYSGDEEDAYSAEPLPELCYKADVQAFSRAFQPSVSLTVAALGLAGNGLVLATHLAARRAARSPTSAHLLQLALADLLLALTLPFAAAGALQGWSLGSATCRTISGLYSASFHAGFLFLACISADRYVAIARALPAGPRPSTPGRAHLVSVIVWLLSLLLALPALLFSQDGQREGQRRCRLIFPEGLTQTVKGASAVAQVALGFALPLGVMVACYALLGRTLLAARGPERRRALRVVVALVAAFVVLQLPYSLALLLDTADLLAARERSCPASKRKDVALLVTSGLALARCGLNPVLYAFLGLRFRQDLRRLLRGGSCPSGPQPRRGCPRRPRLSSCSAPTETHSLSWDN
Protocol: Immunoblot and Co-Immunoprecipitation (Co-IP). After serum starvation, inhibitors were added 45 minutes prior to stimulation for indicated times at 37° C., and cells were then collected and lysed for western blot analysis. After probing for p-eNOS (Ser1177), p-p85 (Tyr458), p-Src (Tyr 416), and p-ERK (T202/Y204), the same blots were stripped and re-probed for total proteins mentioned above. For detection of CCL28-induced protein levels of β-catenin and Bcl-2, near-confluent endothelial cells were incubated with 500 ng/ml CCL28 for 24 hours in EGM-2 medium containing 1% FBS.
(§1) Co-IP Experiments, cells or mouse wounds were collected after treatment, and lysed in 2% ODG in Tris buffer. The homogenates were further prepared for Co-IP experiments as described in the art (Chen, et al. (2018) Mol. Biol. Cell 29(10):1190-1202; Chen, et al. (2020) FASEB J. 34(4):5838-5850; Chen, et al. (2015) Ann. Rheum. Dis. 74:1898-1906).
Therefore, the effect of inhibition of CCR10-eNOS interaction was investigated using a panel of cell-permeable peptides based on the sequence of the predicted interaction domain on eNOS. Similar peptides have been described in determining the solution structure of calmodulin bound to the target peptide of eNOS (Piazza, et al. (2014) Biochemistry 53(8):1241-9; Piazza, et al. (2016) Biochemistry 55(42):5962-71). First, myristoylated 20 amino acid peptide (491-[…]-510 (P1); SEQ ID NO:61) was synthesized based on the sequence of human eNOS (which is conserved in mouse eNOS). […] It was subsequently determined whether truncated versions of the CBD-derived peptide would have the same effect.

[3] = cited from earlier work
[4] = target: T1, CCR10-eNOS interaction; assay: Ligand-induced CCR10-eNOS interaction in HUVEC (Co-IP, confocal co-localization); assay type: cell-based
Protocol: as §1
Confocal Microscopy. For cellular immunostaining, confluent monolayers of cells grown on coverslips were prepared as described previously (Chen, et al. (2012) Mel. Biol. Cell 23(7):1388-1398). Fluorescent images were obtained using a Zeiss LSM 880 confocal microscope. The co-localization coefficient in specified regions of interest (ROI) were determined using Zeiss Zen software. Briefly, using the Overlay tool, the desired ROI was drawn along the cell edge and the values for the ROIs tabulated. The scatterplot and table were automatically adjusted to the pixel distribution for the selected ROI. The data from different treatment groups were collected and analyzed for statistical significance as described previously (Chen, et al. (2020) FASEB J. 34(4):5838-5850).
To investigate whether CCR10 interacts directly with eNOS, primary culture HUVEC were collected and prepared for co-immunoprecipitation (Co-IP) to assess CCR10-eNOS interaction following stimulation with 5 μM A23187. […] Similar results were obtained in endothelial cells following stimulation with 500 ng/ml human recombinant CCL28. CCR10-eNOS interaction was further supported by confocal microscopy and high-resolution imaging. Upon stimulation with A23187 or CCL28 for 5 minutes, CCR10 co-localized to a greater extent with eNOS on the plasma membrane. Co-localization coefficient in the regions of interest (ROI) in the plasma membrane were quantified from Zeiss LSM 880 confocal microscope images using Zeiss Zen software.

N#CC(=C(/N)Sc1ccccc1N)/C(C#N)=C(\N)Sc1ccccc1N [Peptide U0126]
endothelial cell tube formation ([1]; pretreatment 5 μM): reduced

myr-FKEVANAVKISASLM (Myristoyl-FKEVANAVKISASLM) [Peptide P2]
CCR10-eNOS interaction (Co-IP) [2]: completely blocked

peginesatide
elimination half-life ([3]; in healthy volunteers): 18.9 h

myr-TRKKTFKEVANAVKISASLM (Myristoyl-TRKKTFKEVANAVKISASLM) [Peptide P1]
CCR10-eNOS interaction (Co-IP) [2]: completely blocked | CCR10-eNOS interaction (Co-IP) ([2]; listed as Myr-CBD20): significantly reduced

COC(=O)[C@@H](N)CCCNC(=N)N[N+](=O)[O-] [L-NAME, N^G-nitro-L-arginine methyl ester]
endothelial cell tube formation ([1]; pretreatment 1 mM): reduced

CNc1ccc2oc(C[C@H]3O[C@@]4(CC[C@H]3C)O[C@H]([C@H](C)C(=O)c3ccc[nH]3)[C@H](C)C[C@H]4C)nc2c1C(=O)O [Peptide A23187]
binding of CCR10 to eNOS (Co-IP) ([4]; HUVEC, 5 μM): Enhanced | time of maximum CCR10-eNOS binding ([4]; HUVEC, 5 μM): 5 minutes | Co-localization coefficient of CCR10 and eNOS ([4]; plasma membrane ROI, stimulation for 5 minutes, untreated control cells 43%): 81%

myr-VANAVKISASLM (Myristoyl-VANAVKISASLM) [Peptide P3]
CCR10-eNOS interaction (Co-IP) [2]: completely blocked

albiglutide
half-life ([3]; in humans): 140 to 170 h

CC(C)(N)C(=O)N[C@@H](Cc1c[nH]cn1)C(=O)N[C@H](Cc1ccc2ccccc2c1)C(=O)N[C@H](Cc1ccccc1)C(=O)N[C@@H](CCCCN)C(N)=O [Ipamorelin] (H-[Aib]H[d2Nal][dF]K-NH2)
terminal half-life ([3]; in humans): about 2 hours

NC(=O)CC[C@@H]1NC(=O)[C@H](Cc2ccccc2)NC(=O)[C@H](Cc2ccc(O)cc2)NC(=O)[C@@H](N)CSSC[C@@H](C(=O)N2CCC[C@H]2C(=O)N[C@@H](CCCN=C(N)N)C(=O)NCC(N)=O)NC(=O)[C@H](CC(N)=O)NC1=O [vasopressin]
half-life ([3]; in humans): 0.167 to 0.583 h

O=C(O)c1ccc2c3c1cccc3c(=O)n1c3ccccc3nc21 [STO-609]
endothelial cell tube formation ([1]; pretreatment 10 μM): reduced
